Results: US10508109B2 (priority 2015, dated 2019)
Counter-ions that a name gives are not always drawn. Like-named read-outs stand apart in the source and are kept apart here.

What was measured:
A549 = assay: Cell-based assay, anti-proliferative activity (Cell Counting Kit-8, 72 hours); settings: Homo sapiens, read-out: IC50 (μM) A549
Outline: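 Cells were seeded in 96-well plates and exposed to candidate inhibitors. Cellular growth was then determined with the colorimetric kit, and IC50 values were calculated from the growth data.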

SUV39H2 = SUV39H2 (Homo sapiens (Human), UniProt Q9H5I1); settings: read-out: IC50 (μM) Suv 39H2 assay
HCT-116 = assay: Cell-based assay, anti-proliferative activity (Cell Counting Kit-8, 72 hours); settings: Homo sapiens, read-out: IC50 (μM) HCT-116
Experimental: (§1) Active candidate inhibitors against SUV39H2 were evaluated for their target-specific cytotoxicity using A549, HCT-116, HFL1, CCD-18Co and PC14. 100 micro-L of cell suspension was seeded onto 96-well microtiter plate (ViewPlate-96FTC, PerkinElmer). The initial cell concentration of A549, HCT-116, HFL1, CCD-18Co and PC14 were 3,000 cells/well, 2,000 cells/well and 2,500 cells/well, respectively. Cellular growth was determined using Cell Counting Kit-8 (DOJINDO) at 72 hours after the exposure of the candidate inhibitors. IC50 was used as an indicator of the anti-proliferative activity of the inhibitors, and calculated by serial dilution method (0, 1.5625, 3.125, 6.25, 12.5, 25, 50, and 100 micro-M). Accurate IC50 values were calculated as described previously.

CCD-18Co = assay: as above; settings: Homo sapiens, read-out: IC50 (μM) CCD-18Co
Experimental: as §1

HFL1 = assay: as above; settings: Homo sapiens, read-out: IC50 (μM) HFL1
Experimental: as §1

[1] = A549 cells, Cell Counting Kit-8, 72 hours
[2] = HCT-116 cells, Cell Counting Kit-8, 72 hours
[3] = CCD-18Co cells, Cell Counting Kit-8, 72 hours
[4] = HFL1 cells, Cell Counting Kit-8, 72 hours

SUV39H2, sequence (Q9H5I1 whole entry): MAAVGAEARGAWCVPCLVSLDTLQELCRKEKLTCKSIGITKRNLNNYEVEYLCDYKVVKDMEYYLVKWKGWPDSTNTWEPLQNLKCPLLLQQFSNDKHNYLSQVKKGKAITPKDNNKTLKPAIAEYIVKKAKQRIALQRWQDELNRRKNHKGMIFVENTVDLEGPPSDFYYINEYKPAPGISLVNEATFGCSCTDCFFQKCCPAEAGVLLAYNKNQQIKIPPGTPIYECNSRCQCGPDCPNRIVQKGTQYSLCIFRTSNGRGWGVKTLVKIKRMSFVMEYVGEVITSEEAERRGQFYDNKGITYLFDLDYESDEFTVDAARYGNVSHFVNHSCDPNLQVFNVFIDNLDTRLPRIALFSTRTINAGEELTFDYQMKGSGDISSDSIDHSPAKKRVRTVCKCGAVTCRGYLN

## COc1cc(OC)c(-c2cn3ccc(N4CCN(CCNC(=O)OC(C)(C)C)CC4)cc3n2)cc1Cl [Example 28, tert-butyl (2-(4-(2-(5-chloro-2,4-dimethoxyphenyl)imidazo[1,2-a]pyridin-7-yl)piperazin-1-yl)ethyl)carbamate dihydrochloride]
A549; [1]
  IC50: 3.6 µM
SUV39H2; enzyme assay
  IC50: 0.021 µM
HCT-116; [2]
  IC50: 2.8 µM
CCD-18Co; [3]
  IC50: 4 µM
HFL1; [4]
  IC50: 3.4 µM

## COc1cc(OC)c(-c2cn3ccc(C4=CCN(CC#N)CC4)cc3n2)cc1Cl [Example 111, 2-(4-(2-(5-chloro-2,4-dimethoxyphenyl)imidazo[1,2-a]pyridin-7-yl)-5,6-dihydropyridin-1(2H)-yl)acetonitrile]
A549; [1]
  IC50: 3.3 µM
SUV39H2; enzyme assay
  IC50: 0.0614 µM
HCT-116; [2]
  IC50: 3.5 µM
CCD-18Co; [3]
  IC50: 4.8 µM
HFL1; [4]
  IC50: 1.9 µM

## COc1cc(OC)c(-c2cn3ccc(N)nc3n2)cc1Br [Example 2, 2-(5-bromo-2,4-dimethoxyphenyl)imidazo[1,2-a]pyrimidin-7-amine hydrochloride]
A549; A549, 72 h
  IC50: 18 µM
SUV39H2
  IC50: 0.0169 µM
HCT-116; HCT-116, 72 h
  IC50: 17 µM
CCD-18Co; CCD-18Co, 72 h
  IC50: 16 µM
HFL1; HFL1, 72 h
  IC50: 16 µM

## COc1cc(OC)c(-c2cn3cc(NCCN)ccc3n2)cc1Cl [Example 81, N^1-(2-(5-chloro-2,4-dimethoxyphenyl)imidazo[1,2-a]pyridin-6-yl)ethane-1,2-diamine]
A549; [1]
  IC50: 13 µM
SUV39H2; enzyme assay
  IC50: 0.0179 µM
HCT-116; [2]
  IC50: 11 µM
CCD-18Co; [3]
  IC50: 11 µM
HFL1; [4]
  IC50: 5.6 µM

## COc1cc(OC)c(-c2cn3cc(C4=CCNCC4)c(N4CCOCC4)cc3n2)cc1Cl [Example 101, 4-(2-(5-chloro-2,4-dimethoxyphenyl)-6-(1,2,3,6-tetrahydropyridin-4-yl)imidazo[1,2-a]pyridin-7-yl)morpholine]
A549; [1]
  IC50: 8.3 µM
SUV39H2; enzyme assay
  IC50: 0.0105 µM
HCT-116; [2]
  IC50: 8.6 µM
CCD-18Co; [3]
  IC50: 6.6 µM
HFL1; [4]
  IC50: 7.5 µM

## COc1cc(OC)c(-c2cn3ccc(N4CCC(NC(=O)OC(C)(C)C)C4)nc3n2)cc1C#N (centres unmarked) [Example 74, tert-butyl (1-(2-(5-cyano-2,4-dimethoxyphenyl)imidazo[1,2-a]pyrimidin-7-yl)pyrrolidin-3-yl) carbamate]
A549; [1]
  IC50: 8.5 µM
SUV39H2; enzyme assay
  IC50: 0.0303 µM
HCT-116; [2]
  IC50: 8.1 µM
CCD-18Co; [3]
  IC50: 6.4 µM
HFL1; [4]
  IC50: 3.9 µM

## COc1cc(OC)c(-c2cn3ccc(N4CCN(C)CC4)cc3n2)cc1Cl [Example 106, 2-(5-chloro-2,4-dimethoxyphenyl)-7-(4-methylpiperazin-1-yl)imidazo[1,2-a]pyridine]
A549; [1]
  IC50: 6.3 µM
SUV39H2; enzyme assay
  IC50: 0.0167 µM
HCT-116; [2]
  IC50: 6.8 µM
CCD-18Co; [3]
  IC50: 6.8 µM
HFL1; [4]
  IC50: 3.9 µM

## COc1cc(OC)c(-c2cn3ccc(N4CCC(CCN)CC4)nc3n2)cc1Cl [Example 67]
A549; [1]
  IC50: 12 µM
SUV39H2; enzyme assay
  IC50: 0.0216 µM
HCT-116; [2]
  IC50: 13 µM
CCD-18Co; [3]
  IC50: 13 µM
HFL1; [4]
  IC50: 9.6 µM

## COc1cc(OC)c(-c2cn3cnc(N)cc3n2)cc1Cl [Example 51, 2-(5-chloro-2,4-dimethoxyphenyl)imidazo[1,2-c]pyrimidin-7-amine]
A549; [1]
  IC50: 9.8 µM
SUV39H2; enzyme assay
  IC50: 0.0531 µM
HCT-116; [2]
  IC50: 8.9 µM
CCD-18Co; [3]
  IC50: 6.8 µM
HFL1; [4]
  IC50: 8.4 µM

## COc1cc(OC)c(-c2cn3ccc(C4=CCN(C(C)=O)CC4)cc3n2)cc1Cl [Example 120, 1-(4-(2-(5-chloro-2,4-dimethoxyphenyl)imidazo[1,2-a]pyridin-7-yl)-5,6-dihydropyridin-1(2H)-yl)ethanone]
A549; [1]
  IC50: 6.5 µM
SUV39H2; enzyme assay
  IC50: 0.0364 µM
HCT-116; [2]
  IC50: 6.6 µM
CCD-18Co; [3]
  IC50: 6.8 µM
HFL1; [4]
  IC50: 7.6 µM

## COc1cc(OC)c(-c2cn3ccc(N4CCNCC4)cc3n2)cc1Cl [Example 17, 2-(5-chloro-2,4-dimethoxyphenyl)-7-(piperazin-1-yl)imidazo[1,2-a]pyridine]
A549; [1]
  IC50: 6.1 µM
SUV39H2; enzyme assay
  IC50: 0.0195 µM
HCT-116; [2]
  IC50: 4.5 µM
CCD-18Co; [3]
  IC50: 8.6 µM
HFL1; [4]
  IC50: 3.3 µM

## COc1cc(OC)c(-c2cn3ccc(N4CCOCC4)cc3n2)cc1C#N [Example 93, 2,4-Dimethoxy-5-(7-morpholinoimidazo[1,2-a]pyridin-2-yl)benzonitrile]
A549; A549, 72 h
  IC50: 6.4 µM
SUV39H2; enzyme assay
  IC50: 0.0119 µM
HCT-116; HCT-116, 72 h
  IC50: 6.4 µM
CCD-18Co; CCD-18Co, 72 h
  IC50: 6.3 µM
HFL1; HFL1, 72 h
  IC50: 9.6 µM

## COc1cc(OC)c(-c2cn3cc(N4CCNCC4)ccc3n2)cc1Cl [Example 115, 2-(5-chloro-2,4-dimethoxyphenyl)-6-(piperazin-1-yl)imidazo[1,2-a]-pyridine hydrochloride]
A549; A549, 72 h
  IC50: 9.4 µM
SUV39H2
  IC50: 0.0179 µM
HCT-116; HCT-116, 72 h
  IC50: 7.7 µM
CCD-18Co; CCD-18Co, 72 h
  IC50: 13 µM
HFL1; HFL1, 72 h
  IC50: 8.4 µM

## COc1cc(OC)c(-c2cn3ccc(C4CCNCC4)cc3n2)cc1Cl [Example 112, 2-(5-chloro-2,4-dimethoxyphenyl)-7-(piperidin-4-yl)imidazo[1,2-a]pyridine]
A549; [1]
  IC50: 6.3 µM
SUV39H2; enzyme assay
  IC50: 0.0623 µM
HCT-116; [2]
  IC50: 7.5 µM
CCD-18Co; [3]
  IC50: 8.8 µM
HFL1; [4]
  IC50: 6.7 µM

## COc1cc(OC)c(-c2cn3ccc(C4=CCN(CCC#N)CC4)cc3n2)cc1Cl [Example 109, 3-(4-(2-(5-chloro-2,4-dimethoxyphenyl)imidazo[1,2-a]pyridin-7-yl)-5,6-dihydropyridin-1(2H)-yl)propanenitrile]
A549; [1]
  IC50: 5.9 µM
SUV39H2; enzyme assay
  IC50: 0.0417 µM
HCT-116; [2]
  IC50: 5.1 µM
CCD-18Co; [3]
  IC50: 2.6 µM
HFL1; [4]
  IC50: 1.8 µM

## COc1cc(OC)c(-c2cn3ccc(N4CCC(CNC(=O)OC(C)(C)C)CC4)nc3n2)cc1Cl [Example 32, tert-butyl ((1-(2-(5-chloro-2,4-dimethoxyphenyl)imidazo[1,2-a]pyrimidin-7-yl)piperidin-4-yl)methyl)carbamate]
A549; [1]
  IC50: 6.7 µM
SUV39H2; enzyme assay
  IC50: 0.037 µM
HCT-116; [2]
  IC50: 8.4 µM
CCD-18Co; [3]
  IC50: 6.3 µM
HFL1; [4]
  IC50: 4.6 µM

## COCCN1CCN(c2ccn3cc(-c4cc(Cl)c(OC)cc4OC)nc3c2)CC1 [Example 105, 2-(5-chloro-2,4-dimethoxyphenyl)-7-(4-(2-methoxyethyl)piperazin-1-yl)imidazo[1,2-a]pyridine]
A549; [1]
  IC50: 7.2 µM
SUV39H2; enzyme assay
  IC50: 0.0111 µM
HCT-116; [2]
  IC50: 7 µM
CCD-18Co; [3]
  IC50: 8.1 µM
HFL1; [4]
  IC50: 8.3 µM

## COc1cc(OC)c(-c2cn3ccc(N4CCC(NC(=O)OC(C)(C)C)CC4)cc3n2)cc1Cl [Example 14, tert-butyl {1-[2-(5-chloro-2,4-dimethoxyphenyl)imidazo[1,2-a]pyridin-7-yl]piperidin-4-yl}carbamate]
A549; [1]
  IC50: 2.7 µM
SUV39H2; enzyme assay
  IC50: 0.0341 µM
HCT-116; [2]
  IC50: 2 µM
CCD-18Co; [3]
  IC50: 1.9 µM
HFL1; [4]
  IC50: 1.8 µM

## COc1cc(OC)c(-c2cn3ccc(N4CCC(NC(=O)OC(C)(C)C)CC4)nc3n2)cc1Cl [Example 36, tert-butyl (1-(2-(5-chloro-2,4-dimethoxyphenyl)imidazo[1,2-a]pyrimidin-7-yl)piperidin-4-yl)carbamate]
A549; [1]
  IC50: 5.6 µM
SUV39H2; enzyme assay
  IC50: 0.0552 µM
HCT-116; [2]
  IC50: 4.1 µM
CCD-18Co; [3]
  IC50: 3.8 µM
HFL1; [4]
  IC50: 3.2 µM

## COc1cc(OC)c(-c2cn3ccc(N4CCC(CN)CC4)nc3n2)cc1Cl [Example 31, (1-(2-(5-chloro-2,4-dimethoxyphenyl)imidazo[1,2-a]pyrimidin-7-yl)piperidin-4-yl)methanamine hydrochloride]
A549; A549, 72 h
  IC50: 18 µM
SUV39H2
  IC50: 0.0489 µM
HCT-116; HCT-116, 72 h
  IC50: 22 µM
CCD-18Co; CCD-18Co, 72 h
  IC50: 23 µM
HFL1; HFL1, 72 h
  IC50: 9.3 µM

## COc1cc(OC)c(-c2cn3ccc(N4CCC(NC(=O)OC(C)(C)C)C4)nc3n2)cc1Cl (centres unmarked) [Example 26, tert-butyl (1-(2-(5-chloro-2,4-dimethoxyphenyl)imidazo[1,2-a]pyrimidin-7-yl)pyrrolidin-3-yl)carbamate]
A549; [1]
  IC50: 7.9 µM
SUV39H2; enzyme assay
  IC50: 0.017 µM
HCT-116; [2]
  IC50: 13 µM
CCD-18Co; [3]
  IC50: 7.9 µM
HFL1; [4]
  IC50: 6.7 µM

## COc1cc(OC)c(-c2cn3ccc(N4CCC(N)CC4)cc3n2)cc1Cl [Example 15, 1-[2-(5-chloro-2,4-dimethoxyphenyl)imidazo[1,2-a]pyridin-7-yl]piperidin-4-amine]
A549; [1]
  IC50: 3.5 µM
SUV39H2; enzyme assay
  IC50: 0.0133 µM
HCT-116; [2]
  IC50: 3.4 µM
CCD-18Co; [3]
  IC50: 6.7 µM
HFL1; [4]
  IC50: 2.7 µM

## COc1cc(OC)c(-c2cn3ccc(N4CCC(NC(=O)OC(C)(C)C)C4)nc3n2)cc1Br (centres unmarked) [Example 13]
A549; [1]
  IC50: 5.7 µM
SUV39H2; enzyme assay
  IC50: 0.0219 µM
HCT-116; [2]
  IC50: 6.6 µM
CCD-18Co; [3]
  IC50: 4.4 µM
HFL1; [4]
  IC50: 3.7 µM

## COc1cc(OC)c(-c2cn3ccc(N4CCC(N(C)C)CC4)cc3n2)cc1Cl [Example 92, 1-(2-(5-chloro-2,4-dimethoxyphenyl)imidazo[1,2-a]pyridin-7-yl)-N,N-dimethylpiperidin-4-amine]
A549; [1]
  IC50: 6 µM
SUV39H2; enzyme assay
  IC50: 0.0135 µM
HCT-116; [2]
  IC50: 7 µM
CCD-18Co; [3]
  IC50: 8.8 µM
HFL1; [4]
  IC50: 5.5 µM

## COc1cc(OC)c(-c2cn3ccc(NCCNC(C)=O)cc3n2)cc1Cl [Example 77, N-(2-((2-(5-chloro-2,4-dimethoxyphenyl)imidazo[1,2-a]pyridin-7-yl)amino)ethyl)acetamide]
A549; [1]
  IC50: 30 µM
SUV39H2; enzyme assay
  IC50: 0.0101 µM
HCT-116; [2]
  IC50: 21 µM
CCD-18Co; [3]
  IC50: 31 µM
HFL1; [4]
  IC50: 15 µM
